One compound from patent US9988371B2, “Benzimidazole analogues and related methods” (The Arizona Board of Regents, on Behalf of the University …, priority 2014, dated 2018) can be followed below.

The term inhibition denotes the percentage by which the read-out fell short of the control. A higher inhibition goes with a response far below the control. What is called IC50 is the point on the concentration scale where inhibition reaches its midpoint. Read a high IC50 as weaker potency in that assay.

One series addresses T1, FYN (Homo sapiens, UniProt P06241).
T1 construct: purchased KINOMEscan
In words: KINOMEscan kinase panel. The settings on record: 50 nM. It counts as binding. How it is done:
(§1) Pz-1 was exceptionally potent on RET and all tested RET mutants including gatekeeper mutants RET/V804M at less than 1 nM (FIGS. 1-3). The RET biochemical assay described herein was not suitable to determine activity of inhibitors having an IC50 of less than 1 nM, as the concentration of the RET enzyme in the assay was 2 nM. An intermediate compound was therefore used for the kinetics studies. […] Pz-1 was screened at concentration of 50 nM against 91 kinases in KINOMEscan, representing a diversity of each Kinome cluster. The kinase assays in KINOMEScan were more sensitive than the biochemical assays described above.

In the next series the test system is GKA. Kind of series: KINOMEscan kinase panel. The following applies: 50 nM. It counts as binding. As to the method: as §1
The target in another series is T2, SRC (Homo sapiens, UniProt P12931).
T2 construct: purchased KINOMEscan
Kind of series: KINOMEscan kinase panel. The settings on record: 50 nM. It is filed as binding. As to the method:
as §1

The target in another series is T3, TRKB (Homo sapiens, UniProt Q16620).
T3 construct: purchased KINOMEscan
T3 sequence (Q16620 32-822): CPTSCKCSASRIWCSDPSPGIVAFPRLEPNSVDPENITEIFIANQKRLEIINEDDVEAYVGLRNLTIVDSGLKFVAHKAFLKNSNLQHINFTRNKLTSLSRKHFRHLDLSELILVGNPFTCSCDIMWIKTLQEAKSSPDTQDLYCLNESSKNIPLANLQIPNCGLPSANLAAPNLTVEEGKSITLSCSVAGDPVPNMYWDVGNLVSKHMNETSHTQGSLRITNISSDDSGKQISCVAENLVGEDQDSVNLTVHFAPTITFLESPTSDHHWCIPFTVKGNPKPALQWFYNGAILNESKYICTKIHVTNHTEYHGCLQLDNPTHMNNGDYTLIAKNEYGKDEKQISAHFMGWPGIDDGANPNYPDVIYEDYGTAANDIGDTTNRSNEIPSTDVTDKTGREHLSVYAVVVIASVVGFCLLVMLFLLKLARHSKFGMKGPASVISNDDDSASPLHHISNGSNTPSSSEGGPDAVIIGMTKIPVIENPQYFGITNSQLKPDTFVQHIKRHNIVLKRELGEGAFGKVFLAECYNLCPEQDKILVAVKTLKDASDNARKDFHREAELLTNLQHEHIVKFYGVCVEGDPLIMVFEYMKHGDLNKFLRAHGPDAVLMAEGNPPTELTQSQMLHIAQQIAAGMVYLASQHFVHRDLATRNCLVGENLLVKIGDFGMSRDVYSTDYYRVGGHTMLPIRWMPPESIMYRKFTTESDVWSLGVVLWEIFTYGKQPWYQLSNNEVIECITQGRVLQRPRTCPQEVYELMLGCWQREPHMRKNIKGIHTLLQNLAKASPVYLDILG
Kind of series: KINOMEscan kinase panel. The settings on record: 50 nM. It counts as binding. As to the method:
as §1

A further series concerns the target T4, TRKC (Homo sapiens, UniProt Q16288).
T4 construct: purchased KINOMEscan
Kind of series: KINOMEscan kinase panel. It counts as binding. The following applies: 50 nM. As to the method: as §1

The target of the next series is T5, RET/C634W (Homo sapiens, UniProt P07949, C634W).
T5 construct: RET protein endogenously expressed in TT cells; endogenous in cells; host or cells: TT (human medullary thyroid carcinoma)
T5 sequence (P07949 29-1114 C634W): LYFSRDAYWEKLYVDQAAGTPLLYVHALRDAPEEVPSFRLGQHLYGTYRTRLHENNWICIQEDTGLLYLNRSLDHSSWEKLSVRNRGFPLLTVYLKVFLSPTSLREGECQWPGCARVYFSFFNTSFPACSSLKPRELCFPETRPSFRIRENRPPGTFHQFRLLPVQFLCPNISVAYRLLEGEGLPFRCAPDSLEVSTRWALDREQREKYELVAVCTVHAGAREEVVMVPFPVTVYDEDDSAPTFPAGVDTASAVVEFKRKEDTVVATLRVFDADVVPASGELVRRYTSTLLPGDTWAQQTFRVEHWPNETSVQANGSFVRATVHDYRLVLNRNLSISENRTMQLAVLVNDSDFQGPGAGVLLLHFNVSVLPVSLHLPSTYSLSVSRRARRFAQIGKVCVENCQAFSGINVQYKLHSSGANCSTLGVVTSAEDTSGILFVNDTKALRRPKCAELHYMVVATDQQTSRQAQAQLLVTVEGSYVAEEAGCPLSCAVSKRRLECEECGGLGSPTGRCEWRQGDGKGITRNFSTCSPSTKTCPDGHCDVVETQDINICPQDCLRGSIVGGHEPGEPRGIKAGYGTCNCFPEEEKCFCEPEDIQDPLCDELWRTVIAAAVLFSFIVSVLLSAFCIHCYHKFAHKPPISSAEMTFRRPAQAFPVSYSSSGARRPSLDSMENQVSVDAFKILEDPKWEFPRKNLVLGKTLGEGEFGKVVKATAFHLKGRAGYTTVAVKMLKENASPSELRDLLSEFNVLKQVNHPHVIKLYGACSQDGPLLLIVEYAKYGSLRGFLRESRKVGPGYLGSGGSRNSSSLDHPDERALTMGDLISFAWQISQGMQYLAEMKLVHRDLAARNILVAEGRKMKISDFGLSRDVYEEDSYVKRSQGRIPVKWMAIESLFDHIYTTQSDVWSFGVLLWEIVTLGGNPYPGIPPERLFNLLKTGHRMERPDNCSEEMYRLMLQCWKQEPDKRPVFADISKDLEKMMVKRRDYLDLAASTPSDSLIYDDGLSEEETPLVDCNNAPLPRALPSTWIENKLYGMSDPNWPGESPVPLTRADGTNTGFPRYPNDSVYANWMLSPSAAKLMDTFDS
Kind of series: RET auto-phosphorylation immunoblot in TT cells. It is filed as cell-based. The settings on record: 1 nM. As to the method: FIG. 3: Photographs of blots showing inhibition of RET protein endogenously expressed in TT cells (human MTC cell line expressing RET/C634W) by indicated concentrations of Pz-1 or vehicle (NT: not treated) and reduced effects in thyroid non-transformed Nthy-ori-3-1 cells. Serum-starved human TT and thyroid non-transformed Nthy-ori-3-1 cell lines were treated for 2 hr with indicated concentrations of Pz-1. 50 μg of total cell lysates were subjected to immunoblotting with anti-phospho-Y1062 (αp1062) and anti-phospho-905 (αpY905) RET antibodies, anti-phospho-MAPK (αpMAPK, T302/Y304), and anti-phospho-SHC (αpSHC, Y317) antibodies. The blots were normalized using anti-RET (αRET) and anti-SHC (αSHC).
The inhibition of RET auto-phosphorylation by Pz-1 was measured in several different cell lines including NIH3T3 fibroblasts expressing RET/C634Y or RET/M918T, TT expressing RET/C634W (MTC), Nthy-ory-3-1 (thyroid, non-transformed with RET; negative control), HEK293/RET/PTC1 (CCDC6-RET that can be found in PTC & lung cancer), HEK293/RET-KIF5B (that can be found in lung cancer), HEK293/RET/PTC3 (NCOA4-RET, that can be found in PTC & lung cancer), and HEK293 transfected with RET/C634R-V804M (FIGS. 1-3). […]
Protein lysates were prepared according to standard procedures. […] Immune complexes were detected with the enhanced chemiluminescence kit (Amersham Pharmacia Biotech, Little Chalfort, UK). […]
In general terms: A western blot detects proteins with antibodies after separation by electrophoresis.

The target of the next series is T6, hERG (Homo sapiens, UniProt Q12809).
T6 construct: purchased GenScript
T6 sequence (Q12809 whole entry): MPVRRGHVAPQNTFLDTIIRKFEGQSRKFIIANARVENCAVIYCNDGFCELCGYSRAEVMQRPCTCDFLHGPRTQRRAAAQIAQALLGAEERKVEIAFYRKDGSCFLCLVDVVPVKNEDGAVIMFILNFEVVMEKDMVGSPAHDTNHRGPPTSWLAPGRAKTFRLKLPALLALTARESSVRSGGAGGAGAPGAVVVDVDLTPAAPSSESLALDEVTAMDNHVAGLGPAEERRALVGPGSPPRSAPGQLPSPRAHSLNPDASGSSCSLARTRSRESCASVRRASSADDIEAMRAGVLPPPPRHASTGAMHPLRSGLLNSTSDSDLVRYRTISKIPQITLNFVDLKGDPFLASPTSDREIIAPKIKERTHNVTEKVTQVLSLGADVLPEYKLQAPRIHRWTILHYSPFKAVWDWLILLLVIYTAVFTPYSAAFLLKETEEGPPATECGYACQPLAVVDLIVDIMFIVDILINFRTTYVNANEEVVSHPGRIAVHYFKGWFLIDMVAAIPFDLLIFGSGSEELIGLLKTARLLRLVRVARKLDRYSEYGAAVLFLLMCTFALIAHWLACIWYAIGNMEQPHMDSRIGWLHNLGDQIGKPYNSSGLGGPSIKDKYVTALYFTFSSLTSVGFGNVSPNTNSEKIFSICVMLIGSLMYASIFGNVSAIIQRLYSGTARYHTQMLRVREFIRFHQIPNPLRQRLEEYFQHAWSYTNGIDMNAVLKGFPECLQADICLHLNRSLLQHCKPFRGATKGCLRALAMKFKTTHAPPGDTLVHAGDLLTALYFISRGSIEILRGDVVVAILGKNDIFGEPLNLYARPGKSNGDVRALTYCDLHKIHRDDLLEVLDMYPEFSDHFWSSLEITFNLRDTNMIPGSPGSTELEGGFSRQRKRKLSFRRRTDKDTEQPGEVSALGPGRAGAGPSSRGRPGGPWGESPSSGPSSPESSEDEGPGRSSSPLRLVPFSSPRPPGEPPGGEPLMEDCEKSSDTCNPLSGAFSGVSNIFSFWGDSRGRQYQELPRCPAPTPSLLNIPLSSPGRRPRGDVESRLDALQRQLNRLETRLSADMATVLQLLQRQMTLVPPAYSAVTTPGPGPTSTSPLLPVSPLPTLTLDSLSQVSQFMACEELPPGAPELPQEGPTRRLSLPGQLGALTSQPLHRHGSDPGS
Kind of series: patch clamp hERG assay. It is filed as cell-based. The following applies: patch clamp (GenScript). As to the method: (§2) Pz-1 was minimally active in the patch clamp hERG assay, with an IC50 for the hERG assay of 10 μM (GenScript).
On the technique in general: Patch clamp records ionic current or voltage across a cell membrane.

For another series, the target named is T7, hERG (relative to RET) (Homo sapiens, UniProt Q12809).
T7 construct: purchased GenScript
T7 sequence (Q12809 whole entry): as above
Kind of series: patch clamp hERG assay. The following applies: human; read-out: selectivity for RET over hERG. It counts as cell-based. How it is done: as §2

T1 sequence (P06241 whole entry): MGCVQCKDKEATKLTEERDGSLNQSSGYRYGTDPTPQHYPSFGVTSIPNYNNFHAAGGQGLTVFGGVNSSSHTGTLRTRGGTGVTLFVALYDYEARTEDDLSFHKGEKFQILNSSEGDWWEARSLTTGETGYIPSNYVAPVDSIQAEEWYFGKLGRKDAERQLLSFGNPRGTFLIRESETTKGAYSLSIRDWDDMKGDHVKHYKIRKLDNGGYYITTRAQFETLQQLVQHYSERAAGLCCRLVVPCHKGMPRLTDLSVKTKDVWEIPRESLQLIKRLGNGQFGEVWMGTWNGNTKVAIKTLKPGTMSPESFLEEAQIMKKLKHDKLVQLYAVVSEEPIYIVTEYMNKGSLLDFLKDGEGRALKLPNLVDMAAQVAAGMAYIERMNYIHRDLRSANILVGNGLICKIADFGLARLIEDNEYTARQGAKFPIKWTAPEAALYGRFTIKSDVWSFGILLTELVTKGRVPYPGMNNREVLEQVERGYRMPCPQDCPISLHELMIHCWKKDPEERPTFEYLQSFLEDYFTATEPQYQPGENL

Regarding `Cn1cc(-c2ccc3c(c2)ncn3-c2ccc(CC(=O)Nc3cc(C(C)(C)C)on3)cc2)cn1` [Pz-1, N-(5-(tert-butyl)isoxazol-3-yl)-2-(4-(5-(1-methyl-1H-pyrazol-4-yl)-1H-benzo[d]imidazol-1-yl)phenyl)acetamide], the inhibition at 0.05 µM against FYN, at SRC, against TRKB and against TRKC was roughly 90% each time. Moreover, the “inhibition of GKA” value in the series with GKA is roughly 90%. In addition, the “inhibition of pRET” value at RET/C634W is “strongly inhibited”. Inhibition against hERG was half-maximal at 10 µM (IC50). Besides, the selectivity ratio at hERG (relative to RET) amounted to 10000.
